According to ChEMBL document CHEMBL1667848, “Synthesis and evaluation of trehalose-based compounds as anti-invasive agents” (Bioorg Med Chem Lett, 2011):
Converted amounts (≈) assume the structure as drawn.

Assays:
[1] = Antiinvasive activity against mouse 26-L5 cells by transwell migration assay; type: functional, cell-based
[2] = Cytotoxicity against mouse 26-L5 cells upto 10 ug/ml; type: cell-based
[3] = Antiinvasive activity against mouse 26-L5 cells at 1 ug/ml by transwell migration assay; type: functional

SMILES	IC50 ([1]; Mus musculus, read-out: IC50)	IC50 [1]	Activity [2]	inhibition at 1 µg/mL [3]
O=C(OC[C@H]1O[C@H](O[C@H]2O[C@H](COC(=O)c3ccc(O)cc3)[C@@H](O)[C@H](O)[C@H]2O)[C@H](O)[C@@H](O)[C@@H]1O)c1ccc(O)cc1	1 µg/mL (≈ 1.72 µM)	–	Non-toxic	–
COc1ccccc1C(=O)OC[C@H]1O[C@H](O[C@H]2O[C@H](COC(=O)c3ccccc3OC)[C@@H](O)[C@H](O)[C@H]2O)[C@H](O)[C@@H](O)[C@@H]1O	1 µg/mL (≈ 1.64 µM)	–	Non-toxic	–
Cc1cc(O)cc(O)c1C(=O)OC[C@H]1O[C@H](O[C@H]2O[C@H](COC(=O)c3c(C)cc(O)cc3O)[C@@H](O)[C@H](O)[C@H]2O)[C@H](O)[C@@H](O)[C@@H]1O [BRARTEMICIN]	0.25 µg/mL (≈ 0.389 µM)	–	Non-toxic	–
COc1ccc(C(=O)OC[C@H]2O[C@H](O[C@H]3O[C@H](COC(=O)c4ccc(OC)cc4)[C@@H](O)[C@H](O)[C@H]3O)[C@H](O)[C@@H](O)[C@@H]2O)cc1	–	Not Active	Non-toxic	–
COc1cc(C(=O)OC[C@H]2O[C@H](O[C@H]3O[C@H](COC(=O)c4cc(OC)c(OC)c(OC)c4)[C@@H](O)[C@H](O)[C@H]3O)[C@H](O)[C@@H](O)[C@@H]2O)cc(OC)c1OC	–	Not Active	Non-toxic	–

Continued, in another order:

IC50 ([1]; Mus musculus, read-out: IC50)	IC50 [1]	SMILES	Activity [2]	inhibition at 1 µg/mL [3]
1 µg/mL (≈ 1.61 µM)	–	O=C(OC[C@H]1O[C@H](O[C@H]2O[C@H](COC(=O)c3c(F)cccc3F)[C@@H](O)[C@H](O)[C@H]2O)[C@H](O)[C@@H](O)[C@@H]1O)c1c(F)cccc1F	Non-toxic	–
–	Not Active	COc1cc(C(=O)OC[C@H]2O[C@H](O[C@H]3O[C@H](COC(=O)c4ccc(F)c(OC)c4)[C@@H](O)[C@H](O)[C@H]3O)[C@H](O)[C@@H](O)[C@@H]2O)ccc1F	Non-toxic	–
0.1 µg/mL (≈ 0.149 µM)	–	COc1cccc(C(=O)OC[C@H]2O[C@H](O[C@H]3O[C@H](COC(=O)c4cccc(OC)c4OC)[C@@H](O)[C@H](O)[C@H]3O)[C@H](O)[C@@H](O)[C@@H]2O)c1OC	Non-toxic	–
1 µg/mL (≈ 1.5 µM)	–	CCNc1cccc(C)c1C(=O)OC[C@H]1O[C@H](O[C@H]2O[C@H](COC(=O)c3c(C)cccc3NCC)[C@@H](O)[C@H](O)[C@H]2O)[C@H](O)[C@@H](O)[C@@H]1O	Non-toxic	–
< 1 µg/mL	–	O=C(OC[C@H]1O[C@H](O[C@H]2O[C@H](COC(=O)c3ccccc3O)[C@@H](O)[C@H](O)[C@H]2O)[C@H](O)[C@@H](O)[C@@H]1O)c1ccccc1O	Non-toxic	35%
–	Not Active	Cc1ccccc1C(=O)OC[C@H]1O[C@H](O[C@H]2O[C@H](COC(=O)c3ccccc3C)[C@@H](O)[C@H](O)[C@H]2O)[C@H](O)[C@@H](O)[C@@H]1O	Non-toxic	–
< 1 µg/mL	–	O=C(OC[C@H]1O[C@H](O[C@H]2O[C@H](COC(=O)c3cccc(O)c3O)[C@@H](O)[C@H](O)[C@H]2O)[C@H](O)[C@@H](O)[C@@H]1O)c1cccc(O)c1O	Non-toxic	40%
